Measurements reported in patent publication US20080306001A1, “TRANSCRIPTIONAL MODULATION OF EXTRACELLULAR MATRIX (ECM) OF DERMAL FIBROBLASTS” (priority 2007, published 2008).

What was measured:
dermal fibroblasts [1] = test: Effect of interfering peptides on expression of ECM components, protein level (Western blot); format: cell-based, human
Protocol: (§1) Human dermal fibroblasts were cultured in standard conditions (DMEM, 10% FCS, penicillin+streptomycin) and used in experiments after three passages in the laboratory. Cells were grown in 24 well plates, each treatment in triplicates. Cells were plated 16 hours prior treatments started. Peptides were added to the media, and media was changed every day during 7 day experiment. CPP concentration was 10 μM.
(§2) Western blot using antibodies against fibronectin, thrombospondin, collagen I, collagen II, collagen 4, elastin, MMP1, MMP2, MMP7 and TIMP1 were performed using standard protocols. Cells were lysed in SDS loading buffer and separated on 5% SDS PAGE following transfer onto PVD membrane using semidry blotting. Antibodies were diluted 1:2000 and incubated for 2 hours followed by secondary antibody conjugated to alkaline phosphatase. Antibody binding was visualized using one step BCIP reagent (Pierce).
(§3) The cells were treated with peptides (1 μM) 24 hours for the mRNA analysis and 72 hours for protein analysis. All experiments were done in triplicates. Variation between replicates was less that 15%.

dermal fibroblasts [2] = test: Effect of interfering peptides on expression of ECM components, mRNA level (RT-PCR); format: cell-based, human; details: peptide 1 μM, 24 hours
Protocol: as §1
(§4) Total RNA from various human tissues was purified using RNAwiz (Ambion, USA) and subjected to subsequent DNase I treatment using the DNA-Free kit (Ambion). Total RNA from cancer cells was purified by using 4PCRmini kit (Ambion). First-strand cDNAs were synthesized with Superscript III reverse transcriptase (Invitrogen, USA) and 5 μg of total RNA using oligo d(T) priming in a final reaction volume of 50 μL
(§5) The cDNA was amplified by PCR using the 2,5U Hot-Firepol (Solis BioDyne, Estonia) and buffer Yellow (Naxo, Estonia). Reaction was performed in a 10 ul volume, using 0.5 ul cDNA as a template. Following primer sets were designed for this study:
as §3

human dermal fibroblasts [3] = test: Whole genome gene expression analysis (Affymetrix GeneChip Human Gene 1.0 ST Array); format: cell-based; details: peptide 10 μM, 24 hour
Protocol: Human dermal fibroblasts were cultured in standard conditions (DMEM, 10% FCS, penicillin+streptomycin) and used in experiments after three passages in the laboratory. Cells were grown in 60 mm plates, each treatment in duplicates. Cells were plated 16 hours prior treatments started. Peptides (10 μM) were added to the media, and cells were collected for RNA isolation 24 hour later.
Total RNA was purified by using 4PCRmini kit (Ambion). First-strand cDNAs were synthesized with Superscript III reverse transcriptase (Invitrogen, USA) and 5 μg of total RNA using oligo d(T) priming in a final reaction volume of 50 μL and used to generate fluorescently labeled probes for whole genome gene expression analysis. Whole genome gene expression analysis was conducted using Affymetrix GeneChip™ Human Gene 1.0 ST Array.

human dermal fibroblasts [4] = test: Effect of peptides on expression of growth factors, mRNA (RT-PCR); format: cell-based
Protocol: as §1, with “12” for “24”
as §4
as §5, with “Primer” for “Following primer”, “designed to specifically amplify the nucleic acid sequence for the corresponding growth factor” for “designed”, “study: […]” for “study:”

human dermal fibroblasts [5] = test: Effect of peptides on expression of growth factors, protein (Western blot); format: cell-based; details: peptide 10 μM
Protocol: as §1, with “12” for “24”
as §2, with “Western blots” for “Western blot”, “against growth factors” for “against fibronectin, thrombospondin, collagen I, collagen II, collagen 4, elastin, MMP1, MMP2, MMP7 and TIMP1”

[6] = tested on: human dermal fibroblast cell lines obtained from elderly patients; test: Effect of CPP mimicking peptides on synthesis of collagen I, collagen II and elastin in aged dermal fibroblasts (Western blot); format: cell-based; details: peptide 10 μM
Protocol: The ability to interfere interaction of TAF4, BRG1 and N-CoR1 with the active transcriptional complex and stimulate synthesis of collagen I, collagen II and elastin was tested on 2 human dermal fibroblast cell lines obtained from elderly patients. It has been shown that: • TAF4 suppression using siRNA stimulates expression of numerous genes in embryonic fibroblasts. (Mengus G, Fadloun A, Kobi D, Thibault C, Perletti L, Michel I, Davidson I. 2005. TAF4 inactivation in embryonic fibroblasts activates TGFbeta signaling and autocrine growth. EMBO J. 2005 Aug. 3; 24(15):2753-67.) • Brg1 inhibits numerous genes during development. (Inayoshi Y, Kaneoka H, Machida Y, Terajima M, Dohda T, Miyake K, Iijima S. 2005. Repression of GR-mediated expression of the tryptophan oxygenase gene by the SWI/SNF complex during liver development. J Biochem (Tokyo). 2005 October; 138(4):457-65) • N-CoR1 plays a crucial role in the repressive activity of diverse transcription factors (J. Frasor, J. M. Danes, C. C. Funk and B. S. Katzenellenbogen. 2005. Estrogen down-regulation of the corepressor N-CoR: Mechanism and implications for estrogen derepression of N-CoR-regulated genes. PNAS. vol. 102 no. 37, 13153-13157.) • SMAD7 functions as a component of negative feedback regulation that controls timining and extent of TGFbeta signaling (Zhu X, Topouzis S, Liang L F, Stotish RL. Myostatin signaling through Smad2, Smad3 and Smad4 is regulated by the inhibitory Smad7 by a negative feedback mechanism. Cytokine. 2004 Jun. 21; 26(6):262-72.) • TAF10 is one of the TATA box-binding protein-associated factors (TAFs), which constitute the TFIID complex.
as §1, §2

[7] = fibroblast 1 (first block of Table 1)
[8] = second block of Table 1 (also fibroblast 1)

“RPKKRKVRRRGQLNSDHKSQLVEKVRLKIGCGIQL [SMAD7.1, CPP-mimicking peptide]” was tested, and the “expression of components of ECM (in words)” value (dermal fibroblasts [1]; dermal fibroblasts in vitro, protein and mRNA) was “stimulate expression of components of ECM”, the “CollagenI protein, fold stimulation” value (dermal fibroblasts [1]; peptide 1 μM, 72 hours) was 2.9 fold and the “Elastin protein, fold stimulation” value (dermal fibroblasts [1]; peptide 1 μM, 72 hours) was 2.6 fold. The “Fibronectin protein, fold stimulation” value (dermal fibroblasts [1]; peptide 1 μM, 72 hours) was 3.1 fold, the “MMP1 protein, fold stimulation” value (dermal fibroblasts [1]; peptide 1 μM, 72 hours) was 1.9 fold and the “MMP2 protein, fold stimulation” value (dermal fibroblasts [1]; peptide 1 μM, 72 hours) was 1.1 fold. The “MMP7 protein, fold stimulation” value (dermal fibroblasts [1]; peptide 1 μM, 72 hours) was 1.9 fold, the “TIMP protein, fold stimulation” value (dermal fibroblasts [1]; peptide 1 μM, 72 hours) was 1.3 fold and the “collagen IV protein, fold stimulation” value (dermal fibroblasts [1]; peptide 1 μM, 72 hours) was 2.1 fold. For the same sequence, the “thrombospondin protein, fold stimulation” value (dermal fibroblasts [1]; peptide 1 μM, 72 hours) was 3.2 fold, the “MMP1 mRNA, fold stimulation” value (dermal fibroblasts [2]) was 3.6 fold and the “MMP7 mRNA, fold stimulation” value (dermal fibroblasts [2]) was 2.9 fold. For the same sequence, the “MMp2 mRNA, fold stimulation” value (dermal fibroblasts [2]) was 1.9 fold, the “TIMP mRNA, fold stimulation” value (dermal fibroblasts [2]) was 4.3 fold and the “collagen IV mRNA, fold stimulation” value (dermal fibroblasts [2]) was 5.4 fold. The “collagenI mRNA, fold stimulation” value (dermal fibroblasts [2]) was 7.9 fold, the “elastin mRNA, fold stimulation” value (dermal fibroblasts [2]) was 7.7 fold and the “fibronectin mRNA, fold stimulation” value (dermal fibroblasts [2]) was 8.7 fold. For the same sequence, the “thrombospondin mRNA, fold stimulation” value (dermal fibroblasts [2]) was 6.9 fold, the “Number of genes with altered expression: expression stimulated 2-5 fold” value (human dermal fibroblasts [3]) was 986 and the “Number of genes with altered expression: expression stimulated more than 5 fold” value (human dermal fibroblasts [3]) was 198. The “Number of genes with altered expression: expression suppressed 2-5 fold” value (human dermal fibroblasts [3]) was 1011, the “Number of genes with altered expression: expression suppressed more than 5 fold” value (human dermal fibroblasts [3]) was 124 and the “CTGF mRNA, fold stimulation of expression compared to control” value (human dermal fibroblasts [4]; peptide 10 μM) was 27 fold. The “HGF mRNA, fold stimulation of expression compared to control” value (human dermal fibroblasts [4]; peptide 10 μM) was 8 fold, the “IGF-1 mRNA, fold stimulation of expression compared to control” value (human dermal fibroblasts [4]; peptide 10 μM) was 4 fold and the “VEGF mRNA, fold stimulation of expression compared to control” value (human dermal fibroblasts [4]; peptide 10 μM) was 4 fold. The “b-FGF mRNA, fold stimulation of expression compared to control” value (human dermal fibroblasts [4]; peptide 10 μM) was 2 fold, the “expression of CTGF (in words)” value (human dermal fibroblasts [4]; protein and mRNA) was “stimulate expression of CTGF significantly” and the “CTGF protein, fold stimulation of expression compared to control” value (human dermal fibroblasts [5]) was 15 fold. For the same sequence, the “HGF protein, fold stimulation of expression compared to control” value (human dermal fibroblasts [5]) was 1.7 fold, the “IGF-1 protein, fold stimulation of expression compared to control” value (human dermal fibroblasts [5]) was 1 fold and the “VEGF protein, fold stimulation of expression compared to control” value (human dermal fibroblasts [5]) was 1.3 fold. The “b-FGF protein, fold stimulation of expression compared to control” value (human dermal fibroblasts [5]) was 1 fold.

In the case of “RPKKRKVRRRLATNSELVGTLTRSCKDETFLL (synethetic amino acid sequence) [TAF4.1, CPP-mimicking peptide]”, the “collagen I, fold increase after 7 days” value [6, 7] is reported as 5 fold, the “collagen II, fold increase after 7 days” value [6, 7] is reported as 3 fold and the “elastin, fold increase after 7 days” value [6, 7] is reported as 4 fold. For the same sequence, the “collagen I, fold increase after 7 days” value [6, 8] was 2 fold, the “collagen II, fold increase after 7 days” value [6, 8] was 4 fold and the “elastin, fold increase after 7 days” value [6, 8] was 2 fold.

“RPKKRKVRRRMGLGKTIQTIALITYLMEHKRINGP [BRG1.1, CPP-mimicking peptide]” was tested, and the “collagen I, fold increase after 7 days” value [6, 7] was 7 fold, the “collagen II, fold increase after 7 days” value [6, 7] was 2 fold and the “elastin, fold increase after 7 days” value [6, 7] was 3 fold. The “collagen I, fold increase after 7 days” value [6, 8] was 3 fold, the “collagen II, fold increase after 7 days” value [6, 8] was 5 fold and the “elastin, fold increase after 7 days” value [6, 8] was 6 fold.
